# According to patent publication US10196369B2, “Spirocyclic EBI2 modulators” (Sanford Burnham Prebys Medical Discovery Institute, priority 2013, dated 2019):
# Molecular target: EBI2 (Homo sapiens, UniProt P32249)
# Assay: Cell-based luminescent assay of EBI2 modulation (7a,25-OHC stimulated)
# Details: 7a,25-OHC final assay concentration 80 nM, 60 minute incubation
# Method: To assess EBI2 modulation, the compounds described herein were assayed in the following cell-based luminescent assay:
# 1) Plated 600 cells/well in 4 μL of assay media into columns 1-48 of a 1536-well assay plate, using a liquid dispenser.
# 2) Centrifuged plates at 1000 rpm for 1 minute and covered with lids.
# 3) Incubated overnight at 37° C., 100% relative humidity, 5% CO2.
# 1) Centrifuged compound plates containing compounds described herein at 500 rpm for 1 minute.
# 2) Added compounds into assay plate col 5-48 to final concentration 4-5 uM. Added matching amount of DMSO to positive and negative control wells in columns 1-4.
# 3) Dispensed 2 uL/well of assay media to columns 1-2 for the positive control wells.
# 4) Added 2 uL/well of 400 nM 7a,25-OHC (final assay concentration=80 nM) in assay media to columns 3-48 for the negative control and test compound wells.
# 5) Centrifuged plates at 1000 rpm for 1 minute and re-lid plates.
# 6) Incubated plates at 37° C., 100% relative humidity, 5% CO2 for 60 minutes.
# 7) Following 60 minute incubation, delivered 2.5 uL of Detection Reagent solution to each assay plate (Columns 1-48) using a liquid handler.
# 8) Centrifuged plates at 2000 rpm for 2 minutes and re-lid plates.
# 9) Incubated plates for 60 minutes at 25 degrees in the dark.
# 10) Read plates using the Viewlux, Envision or other suitable plate reader using a luminescence detection.
# The experimental values were normalized by the difference between values from neutral and stimulator control wells in each plate. Then normalized data was corrected to remove systematic plate patterns due to artifacts such as dispensing tip issues etc.
# Sequence of EBI2 (P32249 whole entry): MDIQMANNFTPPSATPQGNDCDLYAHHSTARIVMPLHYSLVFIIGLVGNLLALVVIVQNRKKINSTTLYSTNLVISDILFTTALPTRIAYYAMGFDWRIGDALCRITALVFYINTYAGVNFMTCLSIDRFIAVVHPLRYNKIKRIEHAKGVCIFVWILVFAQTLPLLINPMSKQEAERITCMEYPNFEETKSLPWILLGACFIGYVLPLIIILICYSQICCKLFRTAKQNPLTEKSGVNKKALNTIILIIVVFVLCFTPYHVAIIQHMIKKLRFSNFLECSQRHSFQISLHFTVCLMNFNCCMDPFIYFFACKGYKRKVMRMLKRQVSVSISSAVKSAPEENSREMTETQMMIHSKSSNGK
row,SMILES,IC50
1,"O=C(C#Cc1ccc(F)cc1)N1CC2(CCN(C(=O)c3ccc(Cl)cc3)CC2)C1 [Compound C94, 1-{7-[(4-chlorophenyl)carbonyl]-2,7-diazaspiro[3.5]non-2-yl}-3-(4-fluorophenyl)prop-2-yn-1-one]",100 to 500 nM
2,"O=C(c1cc2cc(Cl)ccc2[nH]1)N1CCC2(CC1)CN(Cc1ccc(C(F)(F)F)cc1)C2 [Compound C15, 5-chloroindol-2-yl 2-{[4-(trifluoromethyl)phenyl]methyl}-2,7-diazaspiro[3.5]non-7-yl ketone]",100 to 500 nM
3,"O=C(C#Cc1ccc(Cl)cc1)N1CC2(CCN(Cc3ccc(F)cc3)CC2)C1 [Compound C81, 3-(4-chlorophenyl)-1-{7-[(4-fluorophenyl)methyl]-2,7-diazaspiro[3.5]non-2-yl}prop-2-yn-1-one]",100 to 500 nM
4,"COc1ccc(C(=O)N2CCC3(CC2)CN(C(=O)C#Cc2ccc(F)cc2F)C3)cc1 [Compound C97, 3-(2,4-difluorophenyl)-1-{7-[(4-methoxyphenyl)carbonyl]-2,7-diazaspiro[3.5]non-2-yl}prop-2-yn-1-one]",100 to 500 nM
5,"O=C(c1cc2ccc(Br)cc2[nH]1)N1CC2(CCN(Cc3ccc(C(F)(F)F)cc3)CC2)C1 [Compound C63, 6-bromoindol-2-yl 7-{[4-(trifluoromethyl)phenyl]methyl}-2,7-diazaspiro[3.5]non-2-yl ketone]",500 to 5000 nM
6,"O=C(c1cc2cc(Br)ccc2[nH]1)N1CC2(CCN(Cc3ccc(Cl)cc3)CC2)C1 [Compound C49, 5-bromoindol-2-yl 7-[(4-chlorophenyl)methyl]-2,7-diazaspiro[3.5]non-2-yl ketone]",500 to 5000 nM
7,"O=C(C#Cc1ccc(F)cc1)N1CCC2(CC1)CN(Cc1ccc(F)cc1C(F)(F)F)C2 [Compound C90, 3-(4-fluorophenyl)-1-(2-{[4-fluoro-2-(trifluoromethyl)phenyl]methyl}-2,7-diazaspiro[3.5]non-7-yl)prop-2-yn-1-one]",100 to 500 nM
8,"COc1ccc(CN2CC3(CCN(C(=O)C#Cc4ccc(Br)cc4)CC3)C2)cc1 [Compound C75, 3-(4-bromophenyl)-1-{2-[(4-methoxyphenyl)methyl]-2,7-diazaspiro[3.5]non-7-yl}prop-2-yn-1-one]",100 to 500 nM
9,"O=C(C#Cc1ccc(Cl)cc1)N1CC2(CCN(C(=O)c3ccc(F)cc3)CC2)C1 [Compound C3, 3-(4-chlorophenyl)-1-{7-[(4-fluorophenyl)carbonyl]-2,7-diazaspiro[3.5]non-2-yl}prop-2-yn-1-one]",100 to 500 nM
10,"O=C(/C=C/c1ccc(Br)cc1)N1CC2(CCN(Cc3cc(C(F)(F)F)cc(C(F)(F)F)c3)CC2)C1 [Compound C24, (2E)-1-(7-{[3,5-bis(trifluoromethyl)phenyl]methyl}-2,7-diazaspiro[3.5]non-2-yl)-3-(4-bromophenyl)prop-2-en-1-one]",100 to 500 nM
11,"O=C(/C=C/c1ccc(Cl)c(Cl)c1)N1CC2(CCN(C(=O)c3ccc(F)cc3)CC2)C1 [Compound C28, (2E)-3-(3,4-dichlorophenyl)-1-{7-[(4-fluorophenyl)carbonyl]-2,7-diazaspiro[3.5]non-2-yl}prop-2-en-1-one]",< 100 nM
12,"O=C(/C=C/c1ccc(Br)cc1)N1CCC2(CC1)CN(Cc1ccc(Cl)cc1)C2 [Compound C6, (2E)-3-(4-bromophenyl)-1-{2-[(4-chlorophenyl)methyl]-2,7-diazaspiro[3.5]non-7-yl}prop-2-en-1-one]",< 100 nM
13,"O=C(/C=C/c1ccc(Br)cc1)N1CC2(CCN(C(=O)c3ccc(F)c(C(F)(F)F)c3)CC2)C1 [Compound C22, (2E)-3-(4-bromophenyl)-1-(7-{[4-fluoro-3-(trifluoromethyl)phenyl]carbonyl}-2,7-diazaspiro[3.5]non-2-yl)prop-2-en-1-one]",< 100 nM
14,"O=C(C#Cc1ccc(F)cc1)N1CCC2(CC1)CN(C(=O)c1ccc(C(F)(F)F)cc1)C2 [Compound C88, 3-(4-fluorophenyl)-1-(2-{[4-(trifluoromethyl)phenyl]carbonyl}-2,7-diazaspiro[3.5]non-7-yl)prop-2-yn-1-one]",< 100 nM
15,"O=C(/C=C/c1ccc(Br)cc1)N1CC2(CCN(C(=O)c3ccc(Cl)cc3)CC2)C1 [Compound C19, (2E)-3-(4-bromophenyl)-1-{7-[(4-chlorophenyl)carbonyl]-2,7-diazaspiro[3.5]non-2-yl}prop-2-en-1-one]",< 100 nM
16,"O=C(C#Cc1ccc2c(c1)OCO2)N1CCC2(CC1)CN(C(=O)c1ccc(Cl)cc1)C2 [Compound C98, 3-(2H-benzo[3,4-d]1,3-dioxolen-5-yl)-1-{2-[(4-chlorophenyl)carbonyl]-2,7-diazaspiro[3.5]non-7-yl}prop-2-yn-1-one]",100 to 500 nM
17,"O=C(c1cc2cc(Cl)ccc2[nH]1)N1CCC2(CC1)CN(Cc1cccc(F)c1)C2 [Compound C4, 5-chloroindol-2-yl 2-[(3-fluorophenyl)methyl]-2,7-diazaspiro[3.5]non-7-yl ketone]",< 100 nM

# Now from value to molecule:
row,IC50,SMILES
1,< 100 nM,"O=C(C#Cc1ccc(F)cc1)N1CC2(CCN(C(=O)c3ccc(C(F)(F)F)cc3)CC2)C1 [Compound C96, 3-(4-fluorophenyl)-1-(7-{[4-(trifluoromethyl)phenyl]carbonyl}-2,7-diazaspiro[3.5]non-2-yl)prop-2-yn-1-one]"
2,< 100 nM,"O=C(/C=C/c1ccc(Br)cc1)N1CCC2(CC1)CN(C(=O)c1ccc(F)cc1C(F)(F)F)C2 [Compound C52, (2E)-3-(4-bromophenyl)-1-(2-{[4-fluoro-2-(trifluoromethyl)phenyl]carbonyl}-2,7-diazaspiro[3.5]non-7-yl)prop-2-en-1-one]"
3,< 100 nM,"O=C(c1ccc(Br)cc1)N1CCC2(CC1)CN(C(=O)c1cc3cc(Br)ccc3[nH]1)C2 [Compound C46, 5-bromoindol-2-yl 7-[(4-bromophenyl)carbonyl]-2,7-diazaspiro[3.5]non-2-yl ketone]"
4,< 100 nM,"O=C(/C=C/c1ccc(Br)cc1)N1CCC2(CC1)CN(Cc1c(Cl)cccc1Cl)C2 [Compound C11, (2E)-1-{2-[(2,6-dichlorophenyl)methyl]-2,7-diazaspiro[3.5]non-7-yl}-3-(4-bromophenyl)prop-2-en-1-one]"
5,< 100 nM,"O=C(/C=C/c1ccc(Br)cc1)N1CC2(CCN(C(=O)c3cc(F)cc(F)c3)CC2)C1 [Compound C44, (2E)-1-{7-[(3,5-difluorophenyl)carbonyl]-2,7-diazaspiro[3.5]non-2-yl}-3-(4-bromophenyl)prop-2-en-1-one]"
6,< 100 nM,"O=C(C#Cc1ccc(Cl)cc1)N1CCC2(CC1)CN(Cc1ccc(Cl)cc1)C2 [Compound C82, 3-(4-chlorophenyl)-1-{2-[(4-chlorophenyl)methyl]-2,7-diazaspiro[3.5]non-7-yl}prop-2-yn-1-one]"
7,< 100 nM,"O=C(c1ccc(C(F)(F)F)c(F)c1)N1CCC2(CC1)CCN(C(=O)c1cc3cc(Cl)ccc3[nH]1)CC2 [Compound C100, 5-chloroindol-2-yl 9-{[3-fluoro-4-(trifluoromethyl)phenyl]carbonyl}-3,9-diazaspiro[5.5]undec-3-yl ketone]"
8,< 100 nM,"O=C(/C=C/c1ccc(Br)cc1)N1CCC2(CC1)CN(C(=O)c1ccc(F)cc1)C2 [Compound C53, (2E)-3-(4-bromophenyl)-1-{2-[(4-fluorophenyl)carbonyl]-2,7-diazaspiro[3.5]non-7-yl}prop-2-en-1-one]"
9,< 100 nM,"O=C(/C=C/c1ccc(Cl)c(Cl)c1)N1CCC2(CC1)CN(C(=O)/C=C/c1ccc(Cl)c(Cl)c1)C2 [Compound C35, (2E)-1-{2-[(2E)-3-(3,4-dichlorophenyl)prop-2-enoyl]-2,7-diazaspiro[3.5]non-7-yl}-3-(3,4-dichlorophenyl)prop-2-en-1-one]"
10,< 100 nM,"O=C(c1ccc(Cl)cc1)N1CCC2(CC1)CN(C(=O)c1cc3cc(Cl)ccc3[nH]1)C2 [Compound C40, 5-chloroindol-2-yl 7-[(4-chlorophenyl)carbonyl]-2,7-diazaspiro[3.5]non-2-yl ketone]"
11,< 100 nM,"O=C(c1ccc(C(F)(F)F)cc1)N1CCC2(CC1)CN(C(=O)c1cc3cc(Cl)ccc3[nH]1)C2 [Compound C39, 5-chloroindol-2-yl 7-{[4-(trifluoromethyl)phenyl]carbonyl}-2,7-diazaspiro[3.5]non-2-yl ketone]"
12,< 100 nM,"O=C(/C=C/c1ccc(Br)cc1)N1CC2(CCN(C(=O)c3ccc(C(F)(F)F)cc3)CC2)C1 [Compound C21, (2E)-3-(4-bromophenyl)-1-(7-{[4-(trifluoromethyl)phenyl]carbonyl}-2,7-diazaspiro[3.5]non-2-yl)prop-2-en-1-one]"
13,< 100 nM,"N#Cc1ccc(C(=O)N2CCC3(CC2)CN(C(=O)/C=C/c2ccc(Br)cc2)C3)cc1F [Compound C43, 4-({2-[(2E)-3-(4-bromophenyl)prop-2-enoyl]-2,7-diazaspiro[3.5]non-7-yl}carbonyl)-2-fluorobenzenecarbonitrile]"
14,< 100 nM,"COc1ccc(C(=O)N2CC3(CCN(C(=O)/C=C/c4ccc(Br)cc4)CC3)C2)cc1OC [Compound C9, (2E)-1-{2-[(3,4-dimethoxyphenyl)carbonyl]-2,7-diazaspiro[3.5]non-7-yl}-3-(4-bromophenyl)prop-2-en-1-one]"
15,< 100 nM,"O=C(/C=C/c1ccc(Br)cc1)N1CCC2(CC1)CN(C(=O)c1cc(Cl)cc(Cl)c1)C2 [Compound C10, (2E)-1-{2-[(3,5-dichlorophenyl)carbonyl]-2,7-diazaspiro[3.5]non-7-yl}-3-(4-bromophenyl)prop-2-en-1-one]"
